The text below walks through data of patent US11377442B2, “Small molecule agonists and antagonists of NR2F6 activity” (ZANDER THERAPEUTICS, INC., priority 2016, dated 2022).

What all share (format): cell-based
In one test the test system is Renilla_ERa. The test can be described thus: Renilla signal in ERα counterscreen (Renilla_ERa). The note with it: ERα transient transfection, 10 μM. A general note: Counterscreens check selectivity or assay interference.
The subject of another test is Renilla. The test can be described thus: Renilla signal in NR2F6 agonist screening, cmpd/DMSO. The note with it: Renilla.
The next test deals with T1, NR2F6 (Homo sapiens, UniProt P10588).
T1 construct: expressed in transfected cells; also transient transfection
T1 sequence (P10588 1-404): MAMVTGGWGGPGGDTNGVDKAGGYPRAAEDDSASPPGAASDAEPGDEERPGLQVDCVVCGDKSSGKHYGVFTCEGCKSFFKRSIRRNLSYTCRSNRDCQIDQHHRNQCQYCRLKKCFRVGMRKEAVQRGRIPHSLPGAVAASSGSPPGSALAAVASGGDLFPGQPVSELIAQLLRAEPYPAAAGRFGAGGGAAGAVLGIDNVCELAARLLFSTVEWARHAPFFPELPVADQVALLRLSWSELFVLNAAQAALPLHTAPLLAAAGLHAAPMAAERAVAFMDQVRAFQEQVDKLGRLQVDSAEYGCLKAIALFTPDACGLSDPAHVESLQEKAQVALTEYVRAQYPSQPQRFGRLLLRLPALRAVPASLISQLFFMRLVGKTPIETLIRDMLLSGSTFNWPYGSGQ
As to the kind of experiment: NR2F6 agonist screening, Firefly signal cmpd/DMSO. The settings on record: for Firefly F4, cmpd/DMSO (mean): Table 14; for activity (in words): screening result.

The test system of another test is HEK293 pGL4. The test can be described thus: Firefly_pGL signal, cmpd/DMSO (pGL4 control cells). The settings on record: Homo sapiens, HEK293, Table 14, read-out: Firefly pGL4, cmpd/DMSO (mean).
The target in another test is T2, ERα (Homo sapiens, UniProt P03372).
T2 construct: expressed in transfected cells
T2 sequence (P03372 1-595): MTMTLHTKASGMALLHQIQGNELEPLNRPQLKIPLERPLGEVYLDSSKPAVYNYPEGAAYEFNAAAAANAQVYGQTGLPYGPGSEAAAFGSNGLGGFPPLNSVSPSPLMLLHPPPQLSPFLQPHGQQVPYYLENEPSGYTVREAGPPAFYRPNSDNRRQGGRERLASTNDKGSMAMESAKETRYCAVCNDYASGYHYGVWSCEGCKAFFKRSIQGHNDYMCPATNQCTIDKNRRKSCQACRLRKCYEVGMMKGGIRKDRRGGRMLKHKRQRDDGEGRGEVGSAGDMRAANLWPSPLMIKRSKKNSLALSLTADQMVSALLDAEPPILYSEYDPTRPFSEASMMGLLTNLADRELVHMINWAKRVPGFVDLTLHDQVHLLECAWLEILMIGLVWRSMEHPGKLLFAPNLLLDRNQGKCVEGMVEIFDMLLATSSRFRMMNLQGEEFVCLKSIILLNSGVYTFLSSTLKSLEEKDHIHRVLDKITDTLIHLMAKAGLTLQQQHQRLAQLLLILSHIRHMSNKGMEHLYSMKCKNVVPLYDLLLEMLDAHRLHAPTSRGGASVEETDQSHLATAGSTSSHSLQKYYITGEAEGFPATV
The test can be described thus: Counterscreening, Firefly signal with ERα transient transfection (Firefly_ERa). The note with it: ERα transient transfection, 10 μM. As to the method:
The methodology for screening candidate compounds as NR2F6 agonists was as follows: For primary screening, hit criteria was ACT %>DMSO control+5*SD (DSO control) at 10 μM, or any compound with S/B>2. For rescreening, hit criteria was ACT %>DMSO control+3*SD (DSO control) in each replicate at 10 μM. For counterscreening, hit criteria was mean ACT<DMSO control+3*SD (DMSO control) with ERα transient transfection in duplicate at 10 μM.

Where [1] appears, read: repeat 1, read-out: Renilla_ERa, cmpd/DMSO repeat 1.
[2] abbreviates: repeat 2, read-out: Renilla_ERa, cmpd/DMSO repeat 2.
Setting [3] is: Table 14, read-out: Renilla F4, cmpd/DMSO (mean).
[4] abbreviates: Table 14, 10 uM, read-out: Renilla F4, cmpd/DMSO (mean).
The mark [5] stands for this setting: first set screening, 10 μM, repeat 1, read-out: Renilla, cmpd/DMSO repeat 1.
The mark [6] stands for this setting: first set screening, 10 μM, repeat 2, read-out: Renilla, cmpd/DMSO repeat 2.
Where [7] appears, read: C11 analogs follow set (Tables 2-10).

The structures appear in SMILES notation. “Also recorded” adds a separate entry of the source. Like-named read-outs stand apart in the source and are kept apart here.

Regarding `O=C(COc1ccccc1C(=O)N1CCOCC1)NCCc1ccccc1` [Compound 22], the fold induction at 10 µM with Renilla_ERa (setting [1]) stood at 0.8; in the test on Renilla_ERa (setting [2]), 1.1; in the test with Renilla (setting [4]) it was 1.1; in the test with Renilla (setting [5]), 1.1; in the test on Renilla (setting [6]), 1.3; in the test on HEK293 pGL4, 1. In addition, the fold induction at 2 µM in the test on Renilla (setting [3]) was determined as 0.8; with HEK293 pGL4, 1.6. Moreover, the fold induction at 40 µM in the test with Renilla (setting [3]) was determined as 1; in the test with HEK293 pGL4 it was 1.5. Besides, the figures for the “Firefly F4, cmpd/DMSO (mean)” value at NR2F6 (2 uM), at NR2F6 (10 uM) and at NR2F6 (40 uM) were 1.3, 1.4 and 0.6, respectively. The “Firefly, cmpd/DMSO repeat 1” value on NR2F6 (first set screening, 10 μM) is on record as 2.1. The “Firefly, cmpd/DMSO repeat 2” value on NR2F6 (first set screening, 10 μM) came to 2.9. For the same compound, the “Firefly_ERa, cmpd/DMSO repeat 1” value on ERα was 1.5. The “Firefly_ERa, cmpd/DMSO repeat 2” value on ERα stood at 2.2.
As for `Cc1ccc(-c2nc3ccccc3c(=O)[nH]2)cc1` [Compound C3], the fold induction at 10 µM came to 1.1 in the test with Renilla_ERa (setting [1]); 1.2 with Renilla_ERa (setting [2]); 0.9 in the test on Renilla (setting [4]); 1.6 in the test on Renilla (setting [5]); 1.2 with Renilla (setting [6]); 1.3 in the test with HEK293 pGL4. The fold induction at 2 µM in the test on Renilla (setting [3]) was 1; in the test on HEK293 pGL4, 1.1. Besides, the fold induction at 40 µM in the test with Renilla (setting [3]) was 0.9; with HEK293 pGL4, 1. The figures for the “Firefly F4, cmpd/DMSO (mean)” value at NR2F6 (2 uM), at NR2F6 (10 uM) and at NR2F6 (40 uM) were 1.5, 1.1 and 0.9, respectively. Besides, on NR2F6 (first set screening, 10 μM), the “Firefly, cmpd/DMSO repeat 1” value worked out at 2.0. Further, on NR2F6 (first set screening, 10 μM), the “Firefly, cmpd/DMSO repeat 2” value is listed as 2.0. In addition, on ERα, the “Firefly_ERa, cmpd/DMSO repeat 1” value came to 1.8. Besides, the “Firefly_ERa, cmpd/DMSO repeat 2” value at ERα is reported as 1.9.
For `COC(=O)c1ccc2oc(=O)c(S(=O)(=O)c3ccccc3)cc2c1` [Compound C11], the fold induction at 10 µM in the test with Renilla_ERa (setting [1]) was 1.3; with Renilla_ERa (setting [2]), 1.2; in the test with Renilla (setting [4]), 1.2; with Renilla (setting [5]) it was 3.8; with Renilla (setting [6]), 3.3; in the test on HEK293 pGL4 it was 1.7. The fold induction at 2 µM in the test with Renilla (setting [3]) and in the test on HEK293 pGL4 was 1.1 in each case. Further, the fold induction at 40 µM was determined as 0.2 in the test with Renilla (setting [3]) and 0.8 with HEK293 pGL4. Further, the “Firefly, cmpd/DMSO repeat 1” value on NR2F6 (setting [7]) came out at 24.6; on NR2F6 (Table 12) it was 24.6; on NR2F6 (first set screening, 10 μM) it was 13.5. In addition, the “Firefly, cmpd/DMSO repeat 2” value at NR2F6 (setting [7]) amounted to 21.3; at NR2F6 (Table 12) it was 21.3; on NR2F6 (first set screening, 10 μM) it was 12.6. Moreover, the “Firefly/Renilla (NR2F6 stable, clone F4)” value on NR2F6 (Table 12, ratio Firefly/Renilla, NR2F6 stable clone F4) stood at 1.8. For the same compound, the “Firefly, NR2F6 stable (clone F4)/pGL4” value at NR2F6 (Table 12, ratio of Firefly in NR2F6 stable clone F4 to pGL4) is 7.0. Also, the “Firefly F4, cmpd/DMSO (mean)” value on NR2F6 (2 uM) is 1.7; at NR2F6 (10 uM), 1.6; on NR2F6 (40 uM), 0.4. Besides, at NR2F6, the “activity (in words)” value is recorded as “particularly good activity; also recorded: particularly promising”. In addition, the “Firefly_ERa, cmpd/DMSO repeat 1” value at ERα is listed as 1.7. In addition, at ERα, the “Firefly_ERa, cmpd/DMSO repeat 2” value amounted to 1.7.
On to `COc1ccc(-c2cn3cccc(C)c3n2)cc1` [Compound 19], for which the fold induction at 10 µM turned out to be 1.2 with Renilla_ERa (setting [1]); 1 in the test with Renilla_ERa (setting [2]); 1 in the test with Renilla (setting [4]); 1.6 in the test on Renilla (setting [5]); 1.7 in the test on Renilla (setting [6]); 1.3 with HEK293 pGL4. For the same compound, the fold induction at 2 µM amounted to 1.1 in the test with Renilla (setting [3]) and 1.9 in the test on HEK293 pGL4. For the same compound, the fold induction at 40 µM amounted to 0.6 in the test on Renilla (setting [3]) and 0.9 in the test with HEK293 pGL4. The entries for the “Firefly F4, cmpd/DMSO (mean)” value on NR2F6 (2 uM), on NR2F6 (10 uM) and at NR2F6 (40 uM) were 1.7, 1.0 and 0.5, respectively. Also, the “Firefly, cmpd/DMSO repeat 1” value on NR2F6 (first set screening, 10 μM) worked out at 2.2. Besides, the “Firefly, cmpd/DMSO repeat 2” value on NR2F6 (first set screening, 10 μM) is given as 1.7. The “Firefly_ERa, cmpd/DMSO repeat 1” value on ERα is given as 2.3. Moreover, on ERα, the “Firefly_ERa, cmpd/DMSO repeat 2” value is given as 2.4.
Take `CCc1cccc(Nc2cnn(-c3nc4ccccc4s3)c(=O)c2Cl)c1` [Compound C7]: the fold induction at 10 µM with Renilla_ERa (setting [1]) is 0.8; with Renilla_ERa (setting [2]) it was 0.8; with Renilla (setting [4]), 0.3; in the test on Renilla (setting [5]) it was 1.1; with Renilla (setting [6]), 1.4; in the test with HEK293 pGL4, 0.8. The figures for the fold induction at 2 µM in the test with Renilla (setting [3]) and in the test on HEK293 pGL4 were 1 and 0.9, respectively. Further, the fold induction at 40 µM in the test on Renilla (setting [3]) turned out to be 0.4; in the test with HEK293 pGL4, 0.8. The “Firefly F4, cmpd/DMSO (mean)” value on NR2F6 (2 uM) stood at 0.6; on NR2F6 (10 uM), 0.5; at NR2F6 (40 uM) it was 0.4. The “Firefly, cmpd/DMSO repeat 1” value at NR2F6 (first set screening, 10 μM) is 2.1. The “Firefly, cmpd/DMSO repeat 2” value at NR2F6 (first set screening, 10 μM) is given as 2.1. In addition, the “activity (in words)” value on NR2F6 is on record as “particularly good activity”. Also, the “Firefly_ERa, cmpd/DMSO repeat 1” value at ERα was 0.8. The “Firefly_ERa, cmpd/DMSO repeat 2” value on ERα is on record as 0.5.
For the compound `O=C(Nc1cccc(O)c1)c1cc(-c2ccc(Cl)c(Cl)c2)on1` [Compound C5], the fold induction at 10 µM with Renilla_ERa (setting [1]) came out at 1.2; with Renilla_ERa (setting [2]), 1; in the test on Renilla (setting [4]), 0.5; in the test with Renilla (setting [5]), 1.3; with Renilla (setting [6]), 1.4; in the test on HEK293 pGL4 it was 1.2. The fold induction at 2 µM in the test with Renilla (setting [3]) worked out at 0.7; in the test on HEK293 pGL4, 1.3. The figures for the fold induction at 40 µM in the test on Renilla (setting [3]) and with HEK293 pGL4 were 1.1 and 1, respectively. The “Firefly F4, cmpd/DMSO (mean)” value on NR2F6 (2 uM) is 0.9; at NR2F6 (10 uM), 0.8; on NR2F6 (40 uM) it was 0.8. The “Firefly, cmpd/DMSO repeat 1” value at NR2F6 (first set screening, 10 μM) is recorded as 2.2. Also, the “Firefly, cmpd/DMSO repeat 2” value at NR2F6 (first set screening, 10 μM) came out at 1.7. The “Firefly_ERa, cmpd/DMSO repeat 1” value on ERα was 1.6. Further, the “Firefly_ERa, cmpd/DMSO repeat 2” value at ERα worked out at 2.0.
As for `CCOC(=O)c1cnn2c(-c3ccc(Cl)cc3)ccnc12` [Compound C4], the fold induction at 10 µM with Renilla_ERa (setting [1]) turned out to be 1.1; in the test on Renilla_ERa (setting [2]), 1.2; in the test with Renilla (setting [4]), 0.5; in the test on Renilla (setting [5]), 1.6; in the test on Renilla (setting [6]), 1.5; in the test with HEK293 pGL4, 0.9. Besides, the fold induction at 2 µM with Renilla (setting [3]) was 0.6; in the test with HEK293 pGL4 it was 1. Moreover, the fold induction at 40 µM stood at 0.5 in the test on Renilla (setting [3]) and 1.3 with HEK293 pGL4. Moreover, the “Firefly F4, cmpd/DMSO (mean)” value was determined as 1.1 on NR2F6 (2 uM), 0.8 on NR2F6 (10 uM) and 0.7 on NR2F6 (40 uM). The “Firefly, cmpd/DMSO repeat 1” value on NR2F6 (first set screening, 10 μM) stood at 2.5. Moreover, at NR2F6 (first set screening, 10 μM), the “Firefly, cmpd/DMSO repeat 2” value is recorded as 2.5. Besides, the “Firefly_ERa, cmpd/DMSO repeat 1” value at ERα is recorded as 1.6. Further, the “Firefly_ERa, cmpd/DMSO repeat 2” value at ERα was 1.7.
